# Measured values as given in patent publication US4004976A, “Process for recovering the main sapogenins from the roots of rhizomes of helleborus” (Deutsche Gold- und Silber-Scheideanstalt vormals Roessler, priority 1974, dated 1977).
# Assays:
# central nervous system = assay: Muscle relaxing and central nervous system influencing activity; details: in words, no test described
# [1] = test system: indometacin ulcer of rats; assay: Indometacin ulcer of rats (method of John and Adrian modified by Wilhelmi), ulcer protecting effect; assay type: in vivo, rat (albino rats of the strain SIV 50); details: for Ulcer Protecting Effect: oral, 1 h after indometacin 20 mg/kg, evaluated 24 h after indometacin
# Experimental: These tests were carried out according to the method of John and Adrian modified by Wilhelmi on the indometacin ulcer of rats (see Arneimittelforschung Vol. 19 (1969) pages 45 et seq.)
# The determination is carried out in the following manner.
# Albino rats of the strain SIV 50 (S. Ivanovas, Kisslegg/Allgau) having an initial weight of 250 to 300 grams were held in controlled temperature rooms at 20° to 22° C. in wire cages (Ebeco, Type 3 double width) on a standard diet (Altromin). After 48-hour feeding intervals the animals received 20 mg/kg rat of indometacin in 1.5% tragacanth (1 ml tragacanth solution per 100 grams of rat) applied intragastrally.
# One hour after giving the indometacin there was dispensed orally to the animals the test substance. The rats remain otherwise fasting (water ad libitum).
# Twenty-four hours after giving the indometacin the animals were killed with CO2. The stomach was resected, opened along the great curvature and washed under flowing water.
# The ulcerative changes appear as dark, point or stria shaped spots on the mucosa. The evaluation was done according to the method of Munchow, Arneimittelforschung Vol. 4 (1954) pages 341-344.
# [2] = Acute toxicity, LD 50 (method of Miller and Tainter); details: in vivo; mouse, oral application
# Experimental: The acute toxicity of the compound of the invention in the mouse (expressed by LD 50 mg/kg; method of Miller and Tainter; Proc. Soc. Exper. Biol. a. Med. Vol. 57 (1944) pages 261 et seq.) on oral application, for example, is above 6000 mg/kg.
compound,measurement,setting,value
"C=C1CC[C@@]2(OC1)O[C@H]1C[C@H]3[C@@H]4CC=C5C[C@@H](O)C[C@@H](O)[C@]5(C)[C@H]4[C@H](O)C[C@]3(C)[C@H]1[C@@H]2C [compound of the invention, spiro-5,25(27)-diene-1β,3β,11α-triol]",muscle relaxing and central nervous system influencing activity,central nervous system,muscle relaxing and central nervous system influencing activity has been established
same,Ulcer Protecting Effect,"[1]; Daily Dosage 50 mg/kg, rat",58%
same,Ulcer Protecting Effect,"[1]; Daily Dosage 100 mg/kg, rat",78%
same,Ulcer Protecting Effect,"[1]; Daily Dosage 200 mg/kg, rat",80%
same,ulcer healing activity,[1]; in words,has an ulcer healing activity
same,antiulcer activity,"[1]; indometacin ulcers of rats, in words",good antiulcer activity
same,minimal effective dose,"[1]; po, 24 h, orally, indometacin ulcer, rat, read-out: lowest effective dosage",50 mg/kg
same,antiulcer activity compared with Biogastrone,"[1]; versus known medicine Biogastrone, in words",comparable to the activity of the known medicine Biogastrone
same,LD50,[2],> 6000 mg/kg
